Experimental findings from ChEMBL document CHEMBL1201862, “PubChem BioAssay data set” (2004) are described below.

Test systems include NCI/ADR-RES; COLO 205; KM12; CCRF-CEM; 786-0; M14; NCI-H226; HCC 2998; SNB-75; SF-539; MOLT-4; LOX IMVI; OVCAR-5; SK-OV-3; NCI-H460; IGROV-1; MDA-N; CAKI-1; NCI-H23; DMS-273.
Holding throughout (assay): NCI anticancer screen, dose series, 48 h

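These data come from cells grown in 96-well plates and exposed to compound for 48 hours at five concentrations. GI50 marks 50% less growth.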 Activity calls are given as the source filed them. Cut-off read from the data, not from the text of the source: active = GI50 up to about 1.1 µM and inactive = higher. Bridge positions count the residues as written; N and C are the ends. Square brackets hold non-standard residues; d marks the D form. Peptide text beside a SMILES is read from it. * marks the point of attachment. Cya = N[CH](CS(=O)(=O)O)C(=O)O; X49 = CC(C)CCCCCCCC(O)CC(=O)*; GABA = NCCCC(=O)O

`CSc1ccc(NC(=O)C2CCCCC2C(=O)O)cc1` (stereo unspecified): the GI50 in the test with NCI/ADR-RES, with COLO 205, in the test on KM12, with CCRF-CEM, in the test with 786-0 and in the test on M14 was > 100 µM (inactive) in each case. The GI50 with NCI-H226 was > 100 µM (inactive); with HCC 2998 it was > 100 µM (inactive); in the test on SNB-75 it was > 100 µM (inactive); in the test with SF-539, > 100 µM (inactive); in the test on MOLT-4, 38.6 µM (inactive); with LOX IMVI, > 100 µM (inactive). For the same compound, the GI50 with OVCAR-5, with SK-OV-3, in the test with NCI-H460, in the test on IGROV-1, in the test with MDA-N and with CAKI-1 was > 100 µM (inactive) in each case. Further, in the test with NCI-H23, the GI50 was > 100 µM (inactive).
Consider `COc1cccc(C(=O)O[C@H]2[C@@H]3[C@]4(OC(C)=O)CO[C@@H]4C[C@H](O)[C@@]3(C)C(=O)[C@H](OC(C)=O)C3=C(C)[C@@H](OC(=O)[C@H](O)[C@@H](NC(=O)OC(C)(C)C)c4ccco4)C[C@]2(O)C3(C)C)c1`, for which the GI50 is 0.0107 µM (active) in the test with NCI/ADR-RES; < 0.00375 µM (active) in the test on COLO 205; < 0.00375 µM (active) in the test with KM12; < 0.00375 µM (active) in the test with CCRF-CEM; 0.00522 µM (active) in the test on 786-0; < 0.00375 µM (active) with M14. Moreover, the GI50 in the test on NCI-H226 was 0.36 µM (active); with HCC 2998, < 0.00375 µM (active); in the test on SNB-75 it was < 0.00375 µM (active); in the test on SF-539, < 0.00375 µM (active); in the test with MOLT-4, < 0.00375 µM (active); with LOX IMVI, < 0.00375 µM (active). Further, the GI50 in the test on OVCAR-5 is 0.147 µM (active); in the test on SK-OV-3, < 0.00375 µM (active); in the test with NCI-H460, < 0.00375 µM (active); with IGROV-1, < 0.00375 µM (active); in the test with MDA-N it was < 0.00375 µM (active); in the test with CAKI-1 it was < 0.00375 µM (active). For the same compound, in the test with NCI-H23, the GI50 is 6.04 µM (inactive).
Regarding `O=C(NCCOCCO)c1ccc(O)cc1`, the GI50 in the test with COLO 205, in the test with CCRF-CEM, in the test with 786-0, in the test with M14, with DMS-273 and in the test on SF-539 was > 100 µM (inactive) each time. Also, the GI50 in the test on MOLT-4, in the test on LOX IMVI, with SK-OV-3, in the test on NCI-H460, with IGROV-1 and in the test on NCI-H23 was > 100 µM (inactive) throughout.
Regarding `COc1ccc(N2CCN(c3ccc4c(c3)NCC(=O)N4)CC2)cc1`, the GI50 in the test on NCI/ADR-RES is 21.9 µM (inactive); in the test on COLO 205, 43 µM (inactive); with KM12, 21.3 µM (inactive); in the test on CCRF-CEM it was 29.7 µM (inactive); with 786-0, 32.2 µM (inactive); in the test on M14, 52.5 µM (inactive). Also, the GI50 with NCI-H226 was > 100 µM (inactive); with HCC 2998 it was > 100 µM (inactive); in the test on SNB-75, 26.9 µM (inactive); in the test with SF-539, 23.6 µM (inactive); with MOLT-4, 60.7 µM (inactive); in the test on LOX IMVI, 41.4 µM (inactive). In addition, the GI50 with OVCAR-5 was 54.7 µM (inactive); with SK-OV-3, 91.6 µM (inactive); with NCI-H460, > 100 µM (inactive); with IGROV-1 it was 45.8 µM (inactive); in the test with MDA-N, > 100 µM (inactive); in the test with CAKI-1, 64.4 µM (inactive). Besides, the GI50 in the test on NCI-H23 is 60.7 µM (inactive).
As to `C=CCNC1=C2C[C@@H](C)C[C@@H](OC)C(OC(=O)CCCN(C)C)[C@H](C)/C=C(\C)[C@@H](OC(N)=O)[C@H](OC)/C=C\C=C(/C)C(=O)NC(=CC1=O)C2=O` (stereo partly specified), the GI50 in the test on NCI/ADR-RES was 21.8 µM (inactive); in the test on COLO 205 it was 2.82 µM (inactive); in the test on KM12, 4.07 µM (inactive); with CCRF-CEM, 8.95 µM (inactive); in the test with 786-0 it was 12.4 µM (inactive); in the test with M14 it was 8.53 µM (inactive). The GI50 was 14.6 µM (inactive) in the test with NCI-H226; 4.6 µM (inactive) in the test on HCC 2998; 10.9 µM (inactive) in the test with SNB-75; 6.73 µM (inactive) in the test on SF-539; 5.75 µM (inactive) in the test with MOLT-4; 10.1 µM (inactive) with LOX IMVI. The GI50 in the test with OVCAR-5 is 15.2 µM (inactive); in the test with SK-OV-3 it was 2.37 µM (inactive); with NCI-H460, 2.99 µM (inactive); with IGROV-1 it was 8.95 µM (inactive); with MDA-N, 7.26 µM (inactive); in the test with CAKI-1, 12.4 µM (inactive). In addition, in the test with NCI-H23, the GI50 is 6.84 µM (inactive).
On to `Cn1nc(-c2ccccc2)c2c(/C=C/c3ccc(F)cc3)onc2c1=O`, for which the GI50 is > 100 µM (inactive) in the test with COLO 205; > 100 µM (inactive) with CCRF-CEM; 11.1 µM (inactive) in the test on 786-0; > 100 µM (inactive) in the test on M14; > 100 µM (inactive) in the test with DMS-273; 61.9 µM (inactive) with SF-539. Moreover, the GI50 was > 100 µM (inactive) in the test on MOLT-4; 90.4 µM (inactive) in the test on LOX IMVI; 50 µM (inactive) with SK-OV-3; > 100 µM (inactive) with NCI-H460; > 100 µM (inactive) with IGROV-1; 27.4 µM (inactive) in the test with CAKI-1. Further, the GI50 with NCI-H23 was 19 µM (inactive).
Take `CCCCCCOc1ccc(C(=O)NOCc2ccccc2)cc1`: the GI50 is > 100 µM (inactive) with NCI/ADR-RES; > 100 µM (inactive) in the test with COLO 205; > 100 µM (inactive) in the test on KM12; 90.2 µM (inactive) in the test with CCRF-CEM; > 100 µM (inactive) with 786-0; > 100 µM (inactive) in the test on M14. In addition, the GI50 was > 100 µM (inactive) with NCI-H226; > 100 µM (inactive) with HCC 2998; > 100 µM (inactive) with SNB-75; > 100 µM (inactive) in the test with SF-539; 79.6 µM (inactive) in the test on MOLT-4; > 100 µM (inactive) in the test on LOX IMVI. For the same compound, the GI50 in the test on OVCAR-5 was > 100 µM (inactive); in the test with SK-OV-3 it was > 100 µM (inactive); in the test with NCI-H460 it was > 100 µM (inactive); in the test with IGROV-1 it was > 100 µM (inactive); in the test with MDA-N, 45.8 µM (inactive); with CAKI-1, > 100 µM (inactive). The GI50 in the test with NCI-H23 is > 100 µM (inactive).
In the case of `C#CCOCC12C=CC(O1)C1COC(=O)C12` (stereo unspecified), the GI50 with NCI/ADR-RES, in the test with COLO 205, with KM12, in the test on CCRF-CEM, in the test on 786-0 and in the test with M14 was > 100 µM (inactive) each time. The GI50 in the test on NCI-H226, with HCC 2998, in the test with SNB-75, with SF-539, in the test with MOLT-4 and with LOX IMVI was > 100 µM (inactive) each time. Further, the GI50 in the test on OVCAR-5, in the test on SK-OV-3, with NCI-H460, in the test with IGROV-1, in the test with MDA-N and with CAKI-1 was > 100 µM (inactive) in each case. In addition, in the test with NCI-H23, the GI50 was > 100 µM (inactive).
For `CN(C)C1(c2cc3ccccc3s2)CCCCC1`, the GI50 in the test with NCI/ADR-RES was 44.1 µM (inactive); in the test with COLO 205, 26.4 µM (inactive); in the test with KM12 it was 36.5 µM (inactive); with CCRF-CEM, < 0.01 µM (active); with 786-0, 22.2 µM (inactive); in the test with M14, 17.5 µM (inactive). The GI50 with NCI-H226 was 44.9 µM (inactive); with HCC 2998 it was 22.9 µM (inactive); with SNB-75, 32.6 µM (inactive); with SF-539, 50.1 µM (inactive); with MOLT-4 it was 19.2 µM (inactive); in the test with LOX IMVI, 22.5 µM (inactive). In addition, the GI50 was 22.5 µM (inactive) in the test on OVCAR-5; 39.5 µM (inactive) with SK-OV-3; 29.2 µM (inactive) with NCI-H460; 36.1 µM (inactive) in the test with IGROV-1; 32.2 µM (inactive) with MDA-N; 61.5 µM (inactive) with CAKI-1. Further, the GI50 with NCI-H23 is 49.8 µM (inactive).
In the case of `CC(C)C1CCC(=O)CC1CCCCC1CC(=O)CC1O[Si](C)(C)C(C)(C)C` (stereo unspecified), the GI50 in the test with NCI/ADR-RES was 4.25 µM (inactive); in the test on COLO 205, 4.21 µM (inactive); in the test on KM12, 2.76 µM (inactive); in the test on CCRF-CEM, 0.955 µM (active); in the test on 786-0, 3.89 µM (inactive); in the test on M14 it was 6.1 µM (inactive). Moreover, the GI50 is 3.9 µM (inactive) with NCI-H226; 7.03 µM (inactive) with HCC 2998; 13.2 µM (inactive) in the test on SNB-75; 4.66 µM (inactive) in the test on SF-539; 1.89 µM (inactive) in the test on MOLT-4; 2.84 µM (inactive) in the test with LOX IMVI. Besides, the GI50 with OVCAR-5 is 11.1 µM (inactive); in the test on SK-OV-3, 11.9 µM (inactive); with NCI-H460 it was 7.46 µM (inactive); in the test with IGROV-1, 2.84 µM (inactive); in the test with MDA-N it was 4.16 µM (inactive); in the test with CAKI-1, 5.58 µM (inactive). Besides, the GI50 with NCI-H23 is 15.5 µM (inactive).
As to `CC(C)CCCCCCCC(O)CC(=O)NC(CS(=O)(=O)O)C(=O)NC(CC(C)C)C(=O)NCCCC(=O)NC(Cc1c[nH]cn1)C(=O)NC(C)C(=O)NC1C(=O)NC(C(C)O)C(=O)NC(Cc2c[nH]cn2)C(=O)NC(C)C(=O)NC(C(C)O)C(=O)OC1C` (stereo unspecified) (X49-[Cya]L[GABA]HATTHAT; ester 6-C; configuration not given here), the GI50 in the test with NCI/ADR-RES, in the test on COLO 205, with KM12, in the test with CCRF-CEM, with 786-0 and in the test on M14 was > 25 µM (inactive) in each case. For the same compound, the GI50 with NCI-H226, in the test on HCC 2998, in the test on SNB-75, in the test on SF-539, in the test on MOLT-4 and in the test on LOX IMVI was > 25 µM (inactive) throughout. The GI50 in the test on OVCAR-5, with SK-OV-3, with NCI-H460, in the test on IGROV-1, in the test on MDA-N and in the test with CAKI-1 was > 25 µM (inactive) in each case. Further, the GI50 in the test with NCI-H23 is > 25 µM (inactive).
